Read-outs that look alike come from different tables or passages of the source.
How the values were obtained:
BACE = BACE (Homo sapiens, UniProt P56817); assay: In vitro enzymatic BACE FRET assay; assay type: biochemical; conditions: average IC50, enzyme assay; read-out: BACE 1 FRET assay
Method in brief: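 Fluorescence […] after Tris quench reports cleavage of a 50 nM quenched peptide substrate over 1 h. Beforehand, 0.2 nM enzyme sits 1 h with inhibitor dilutions. Buffer: 0.05 M acetate pH 4.2, 100 uM genapol, 10% DMSO final.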

Aβ40 = assay: In vitro BACE cell-based assay (Aβ40 sandwich ELISA, cells stably expressing APP); conditions: Homo sapiens
Method in brief: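 Read-out is Aβ40 in cell supernatants, quantified by sandwich ELISA (capture 3 h, detection 2 h, both 4° C) with Delfia time-resolved fluorescence. Cells stably expressing APP were dosed across 10 concentrations from 100 μM or 10 μM top, 0.1% DMSO final; IC50 fitted from percent of control.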

Abeta 40 = assay: In vivo inhibition of beta-secretase: Abeta 40 reduction in CSF and brain of the rat; conditions: 10 mpk, after 4 hrs
Text: In Vivo Inhibition of Beta-Secretase
Several animal models, including mouse, rat, dog, and monkey, may be used to screen for inhibition of beta-secretase activity in vivo following administration of a test compound sample. Animals used in this invention can be wild type, transgenic, or gene knockout animals. For example, the Tg2576 mouse model, prepared and conducted as described in Hsiao et al., 1996, Science 274, 99-102, and other non-transgenic or gene knockout animals are useful to analyze in vivo inhibition of Amyloid beta peptide (Abeta) production in the presence of inhibitory test compounds. Generally, 2 to 18 month old Tg2576 mice, gene knockout mice or non-transgenic animals are administered test compounds formulated in vehicles, such as cyclodextran, phosphate buffers, hydroxypropyl methylcellulose or other suitable vehicles. One to twenty-four hours following the administration of compound, animals are sacrificed, and brains as well as cerebrospinal fluid (CSF) and plasma are removed for analysis of A-beta levels and drug or test compound concentrations (Dovey et al., 2001, Journal of Neurochemistry, 76,173-181) Beginning at time 0, animals are administered by oral gavage, or other means of delivery such as intravenous injection, an inhibitory test compound of up to 100 mg/kg in a standard, conventional formulation, such as 2% hydroxypropyl methylcellulose, 1% Tween80. A separate group of animals receive 2% hydroxypropyl methylcellulose, 1% Tween80 alone, containing no test compound, and serve as a vehicle-control group. At the end of the test period, animals are sacrificed and brain tissues, plasma or cerebrospinal fluid are collected. Brains are either homogenized in 10 volumes (w/v) of 0.2% diethylamine (DEA) in 50 mM NaCl (Best et al., 2005, Journal of Pharmacology and Experimental Therapeutics, 313, 902-908), or in 10 volumes of 0.5% TritonX-100 in Tris-buffered saline (pH at about 7.6). Homogenates are centrifuged at 355,000 g, 4° C. for 30 minutes. CSF or brain supernatants are then analyzed for the presence of A-beta peptide by specific sandwich ELISA assays based on ECL (Electrochemiluminescence) technology. For example, rat Abeta40 is measured using biotinylated-4G8 (Signet) as a capture antibody and Fab40 (an in-house antibody specific to the C-terminal of Abeta40) as a detection antibody. For example, 4 hours after administration of 30 mg/kg oral dose of the test compound in 2% hydroxypropyl methylcellulose, 1% Tween80 (pH2.2) to 200 g male Sprague Dawley rats, amyloid beta peptide levels are measured for reduction by X % and Y % in cerebrospinal fluid and brain, respectively, when compared to the levels measured in the vehicle-treated rats. • Actual vehicles used: Oral: 2% HPMC, 1% Tween80, pH 2.2 • IV: 5% EtOH, 45% Propylene glycol in 5% Dextrose
The compounds of the invention may be shown to reduce the formation and/or deposition of amyloid beta peptide in the cerebrospinal fluid (CSF) as well as in the brain of a mouse or rat at either 3 mpk, 10 mpk or 30 mpk (mpk=mg compound per kg weight of the animal) dosing concentrations after 4 hrs.

[1] = HEK293, average IC50, cell assay, HEK cells
[2] = Abeta 40, rat CSF, read-out: % reduction of rat CSF levels at 10 pmk
[3] = Abeta 40, rat brain, read-out: % reduction of rat brain levels at 10 mpk
[4] = HEK293, average IC50, read-out: HEK cell assay

Chain of BACE (P56817 46-501, species assumed): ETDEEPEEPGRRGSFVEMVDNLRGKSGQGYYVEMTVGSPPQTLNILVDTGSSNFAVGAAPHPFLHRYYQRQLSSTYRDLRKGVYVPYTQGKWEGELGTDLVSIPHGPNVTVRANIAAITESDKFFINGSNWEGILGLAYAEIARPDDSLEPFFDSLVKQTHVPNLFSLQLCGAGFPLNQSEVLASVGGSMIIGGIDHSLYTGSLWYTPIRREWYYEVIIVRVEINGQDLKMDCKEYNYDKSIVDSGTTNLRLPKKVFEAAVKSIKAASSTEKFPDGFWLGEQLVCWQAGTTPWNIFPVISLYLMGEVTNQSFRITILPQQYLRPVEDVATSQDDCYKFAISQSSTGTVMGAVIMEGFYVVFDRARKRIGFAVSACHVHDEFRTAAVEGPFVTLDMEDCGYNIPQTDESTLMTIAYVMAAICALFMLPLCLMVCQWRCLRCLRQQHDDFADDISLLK

Compound | IC50 (BACE) [nM] | IC50 (Aβ40; [1]) [nM] | inhibition in vivo at 10 mg/kg (Abeta 40; [2]) [%] | inhibition in vivo at 10 mg/kg (Abeta 40; [3]) [%] | IC50 (Aβ40; [4]) [nM]
NC1=N[C@@]2(CCO1)c1cc(-c3cccnc3F)ccc1Oc1cnc(C3=CCCOC3)cc12 [Example 153, (S)-3-(5,6-dihydro-2H-pyran-3-yl)-7-(2-fluoropyridin-3-yl)-5′,6′-dihydrospiro[chromeno[2,3-c]pyridine-5,4′-[1,3]oxazin]-2′-amine] | 2 | 2.6 | 78 | 64 | –
CC(C)(C)C#Cc1cc2c(cn1)Oc1ccc(-c3cccnc3F)cc1[C@@]21CCOC(N)=N1 [Example 154, (S)-3-(3,3-dimethylbut-1-ynyl)-7-(2-fluoropyridin-3-yl)-5′,6′-dihydrospiro[chromeno[2,3-c]pyridine-5,4′-[1,3]oxazin]-2′-amine] | 5.8 | 5 | 57 | 37 | –
NC1=N[C@@]2(CCO1)c1cc(-c3cccnc3F)ccc1Oc1cnc(-c3cncc(F)c3)cc12 [Example 155, (5S)-7-(2-fluoro-3-pyridinyl)-3-(5-fluoro-3-pyridinyl)-5′,6′-dihydrospiro[chromeno[2,3-c]pyridine-5,4′-[1,3]oxazin]-2′-amine] | 3.8 | 6.2 | 68 | 53 | –
NC1=N[C@@]2(CCO1)c1cc(-c3cccnc3)ccc1Oc1c(F)cc(C3=CCOCC3)cc12 [Example 156, (4S)-2′-(3,6-dihydro-2H-pyran-4-yl)-4′-fluoro-7′-(3-pyridinyl)-5,6-dihydrospiro[1,3-oxazine-4,9′-xanthen]-2-amine] | 4.8 | 4.2 | 27 | 8 | –
NC1=N[C@@]2(CCO1)c1cc(-c3cccnc3F)ccc1Oc1c(F)cc(C3=CCOCC3)cc12 [Example 163, (S)-2′-(3,6-dihydro-2H-pyran-4-yl)-4′-fluoro-7′-(2-fluoropyridin-3-yl)-5,6-dihydrospiro[[1,3]oxazine-4,9′-xanthen]-2-amine] | 2.6 | – | 52 | 28 | 6
NC1=N[C@@]2(CCO1)c1cc(-c3cccnc3)ccc1Oc1c(F)cc(C3=CCCOC3)cc12 [Example 164, (S)-2′-(5,6-dihydro-2H-pyran-3-yl)-4′-fluoro-7′-(pyridin-3-yl)-5,6-dihydrospiro[[1,3]oxazine-4,9′-xanthen]-2-amine] | 2.8 | – | 35 | 12 | 2.7
NC1=N[C@@]2(CCO1)c1cc(-c3cccnc3F)ccc1Oc1c(F)cc(-c3ccncc3)cc12 [Example 166, (S)-4′-fluoro-7′-(2-fluoropyridin-3-yl)-2′-(pyridin-4-yl)-5,6-dihydrospiro[[1,3]oxazine-4,9′-xanthen]-2-amine] | 6 | – | 42 | 25 | 8.2
NC1=N[C@@]2(CCO1)c1cc(-c3cccnc3F)ccc1Oc1c(F)cc(-c3cccnc3)cc12 [Example 168, (S)-4′-fluoro-7′-(2-fluoropyridin-3-yl)-2′-(pyridin-3-yl)-5,6-dihydrospiro[[1,3]oxazine-4,9′-xanthen]-2-amine] | 3.5 | – | 44 | 18 | 6.3
NC1=N[C@@]2(CCO1)c1cc(-c3cccnc3F)ccc1Oc1c(F)cc(C3=CCCOC3)cc12 [Example 173, (S)-2′-(5,6-dihydro-2H-pyran-3-yl)-4′-fluoro-7′-(2-fluoropyridin-3-yl)-5,6-dihydrospiro[[1,3]oxazine-4,9′-xanthen]-2-amine] | 1.1 | – | 40 | 14 | 2.9
CC(C)(F)COc1cc(F)c2c(c1)[C@]1(CCOC(N)=N1)c1cc(-c3cccnc3)ccc1O2 [Example 176, (S)-4′-fluoro-2′-(2-fluoro-2-methylpropoxy)-7′-(pyridin-3-yl)-5,6-dihydrospiro[[1,3]oxazine-4,9′-xanthen]-2-amine] | 6.1 | – | 30 | 13 | 8.5
